Paper PMC7956430, “Cytotoxicity and Apoptosis Effects of Curcumin Analogue (2E,6E)-2,6-Bis(2,3-Dimethoxybenzylidine) Cyclohexanone (DMCH) on Human Colon Cancer Cells HT29 and SW620 In Vitro” (Molecules, 2021)
Like-named read-outs stand apart in the source and are kept apart here.

What was measured:
[1] = test system: HT29; experiment: Annexin V/FITC assay (flow cytometry); type: cell-based, human; conditions: HT29, 72 h, DMCH at IC50
Protocol: (§1) The apoptosis effect on HT29 and SW620 cells was studied using an Annexin V fluorescence kit (BD Pharmingen, San Diego, CA, USA) according to the manufacturer’s instructions without any modifications. Briefly, cells were seeded for 24 h at a density of 2.0 × 10^5 cells per well in a 6-well plate. Then, the seeded cells were treated with the designated concentrations for 48 h and 72 h. After the 48 h (or 72 h) of treatment, the treated cells were harvested and collected as a pellet. Next, the pellet was resuspended in 400 μL of binding buffer and stained with 5 μL of FITC-Annexin-V and 5 μL of PI provided in the kit. Afterward, the cells were analysed using a Novocyctes flow cytometer (ACEA Biosciences Inc., San Diego, CA, USA).

[2] = test system: SW620; experiment: Annexin V/FITC assay (flow cytometry); type: cell-based, human; conditions: SW620, 72 h, DMCH at IC50
Protocol: as §1

[3] = test system: apoptosis-related proteins in HT29; experiment: Human apoptosis proteome profiler; type: cell-based; conditions: HT29, DMCH (IC50) for 48 h
Protocol: (§2) Colon cancer cell lines SW620 and HT29 that had been treated with DMCH for 48 h were investigated for the expression profiles of apoptosis-related proteins. This was conducted using the Human Apoptosis Array Kit (R&D Systems, Minneapolis, MN, USA). Firstly, the proteins from both cells were extracted using 600 µL of RIPA buffer (50 mM Tris-HCl, 150 mM NaCl, 1.0% TritonX-100, 0.5% sodium deoxycholate, 0.1% SDS) supplemented with 10 mg of pre-made protease inhibitor cocktails (Roche, Mississauga, ON, Canada). After that, the proteins were quantified using the Bradford assay (Sigma, St. Louis, MO, USA). Then, membranes were blocked by blocking buffer for an hour. At the same time, the proteins were prepared with the addition of 1 mL Lysis Buffer 17 to the protein lysate. The prepared protein was loaded onto the membrane and was incubated at 4 °C overnight. The following day, the membranes were washed three times with 20 mL of wash buffer provided in the kit. Next, the membrane was transferred into a 4-well multi-dish that contains the reconstituted detection antibody cocktails, and it was incubated for an hour on a shaker. Then, the membrane was again washed with a washing buffer three times. Two millilitres of Streptavidin-HRP was added onto the membrane followed by incubation for 30 min. Then, the membrane was washed three times. Afterward, the membrane was loaded with 1.0 mL of Chemi Reagent Mix and then the membrane was scanned using ChemiDoc XRS (Bio-Rad, Hercules, CA, USA).

[4] = test system: apoptosis-related proteins in SW620; experiment: Human apoptosis proteome profiler; type: cell-based; conditions: SW620, DMCH (IC50) for 48 h
Protocol: as §2

[5] = test system: Splenocyctes; experiment: MTT cell viability assay on normal cells; type: cell-based; conditions: splenocytes
[6] = test system: HT29; experiment: Acridine orange/propidium iodide (AO/PI) double staining assay; type: cell-based, human; conditions: HT29, DMCH at IC50, as incubation time increased (48 h, 72 h), p < 0.05
Protocol: (§3) Acridine orange/propidium iodide (AO/PI) double staining assay was performed on colon cancer cell lines to determine the mode of cell death microscopically. HT29 and SW620 cell lines were seeded in a 6-well plate at a density of 2 × 10^5 cells/well. Then, cells were treated with DMCH sample according to 48 h and 72 h concentrations. The treatment-free culture was used as a negative control, and cells were detached and collected at the end of each incubation time. Then, cells were washed with PBS and incubated with a 1:1 ratio of acridine orange (10 µg/mL) and propidium iodide (10 µg/mL). An amount of 10 µL of incubated suspension cells was placed on a slide and viewed immediately under a fluorescent microscope (Nikon FC-35DX, Nikon, Tokyo, Japan).

[7] = test system: SW620; experiment: as above; type: cell-based, human; conditions: SW620, DMCH at IC50, as incubation time increased (48 h, 72 h), p < 0.05
Protocol: as §3

[8] = test system: HT29; experiment: Cell cycle analysis by flow cytometry; type: cell-based, human; conditions: HT29, 72 h
Protocol: (§4) The effect of the DMCH sample on the cell cycle of HT29 and SW620 cells was investigated using flow cytometry cell cycle analysis. Cell cycle assay was carried out using the CycleTEST Plus DNA Reagent Kit according to the instructions (BD Pharmingen, San Diego, CA, USA). The cells were seeded at a density of 2.0 × 10^5 cells/well overnight. Then, cells were treated with different dosages of DMCH based on the concentration results of the MTT assay for 48 h and 72 h. After the treatment, cells were collected, and the pellet was resuspended in 200 μL of trypsin (solution A) and RNAse (solution B) for 10 min each followed by 250 μL of propidium iodide (solution C) for 15 min. After that, flow cytometric analysis was performed within 3 h using a Novocytes flow cytometer (ACEA Biosciences Inc., San Diego, CA, USA).

[9] = test system: SW620; experiment: Cell cycle analysis by flow cytometry; type: cell-based, human
Protocol: as §4

[10] = test system: HT29; experiment: MTT cell viability assay; type: cell-based; conditions: Homo sapiens, HT-29
Protocol: (§5) Both SW620 and HT29 cells were grown in an incubator at 37 °C under 5% CO2 condition with their respective media. After the cells were harvested, they were counted and seeded at 1 × 10^5 cells per well in a 96-well plate overnight before being treated with DMCH. The following day, cells were treated with various concentrations of DMCH. […] Following incubation for the designated time period, 20 μL of (5 mg/mL) MTT 3-[4, 5-dimethylthiazol-2-yl]-2, 5 diphenyltetrazolium bromide (Merck, Kenilworth, NJ, USA) reagent was added into each well and then cells were incubated again for another 3 to 4 h. Next, the solution was removed and 100 μL of dimethyl sulfoxide (DMSO) was added into the wells. Afterward, the plate was read at 575 nm using a microtiter plate reader (μQuant, Bio-Tek Instrument, Winooski, VT, USA). The results were analysed as the percentage proliferation of the cells regarding the concentration of the sample treated. The following formula was used to determine the percentage of viable cells:
(§6) Percentage of viability (%) = (Absorbance of sample at 570 nm)/(Absorbance of control at 570 nm) × 100.

[11] = test system: SW620; experiment: MTT cell viability assay; type: cell-based; conditions: Homo sapiens, SW-620
Protocol: as §5, §6

[12] = Splenocyte, 24 h, read-out: IC50
[13] = Splenocyte, 48 h, read-out: IC50
[14] = Splenocyte, 72 h, read-out: IC50

Structure (SMILES): COc1cccc(/C=C2\CCC/C(=C\c3cccc(OC)c3OC)C2=O)c1OC [DMCH, (2E,6E)-2,6-bis(2,3-dimethoxybenzylidene) cyclohexanone]
- early and late apoptotic/necrotic cells [1]: 8.83 ± 0.42%
- early and late apoptotic/necrotic cells [2]: 15.70 ± 1.03%
- Bad Regulation [3]: Up
- Bax Regulation [3]: Up
- Bcl x Regulation [3]: Down
- Cytochrome c Regulation [3]: Up
- Livin Regulation [3]: Down
- Pro caspase 3 Regulation [3]: Up
- SMAC/Diablo Regulation [3]: Up
- Bad Regulation [4]: Up
- Bax Regulation [4]: Up
- Bcl x Regulation [4]: Up
- Cytochrome c Regulation [4]: Down
- Livin Regulation [4]: Down
- Pro caspase 3 Regulation [4]: Down
- SMAC/Diablo Regulation [4]: Down
- Cytochrome c Relative Intensity (Fold Change) ([4]; vs control): −0.900 ± 0.006
- Livin Relative Intensity (Fold Change) ([4]; vs control): −0.900 ± 0.040
- SMAC/Diablo Relative Intensity (Fold Change) ([4]; vs control): −0.900 ± 0.070
- IC50 [5, 12]: > 30 µM
- IC50 [5, 13]: > 30 µM
- IC50 [5, 14]: > 30 µM
- IC50 ([5]; 24 h): no IC50 values observed
- IC50 ([5]; 48 h): no IC50 values observed
- IC50 ([5]; 72 h): no IC50 values observed
- proportion of cells that exhibited early apoptosis and late apoptosis [6]: significantly higher
- proportion of cells that exhibited early apoptosis and late apoptosis [7]: significantly higher
- cells in sub-G0/G1 phase [8]: 10.96± 0.94%
- cells in sub-G0/G1 phase ([9]; SW620, 48 h): 0.15 ± 0.05%
- cells in sub-G0/G1 phase ([9]; SW620, 72 h): 73.24 ± 1.65%
- IC50 ([10]; HT29, 24 h, read-out: IC50): > 30 µM
- IC50 ([10]; HT29, 48 h, read-out: IC50): 9.8 ± 0.553 µM
- IC50 ([10]; HT29, 72 h, read-out: IC50): 8.2 ± 0.761 µM
- IC50 ([10]; HT29, as printed in abstract, time not stated, read-out: inhibitory concentration (IC50)): 9.8 ± 0.55 µg/mL
- IC50 ([11]; SW620, 24 h, read-out: IC50): > 30 µM
- IC50 ([11]; SW620, 48 h, read-out: IC50): 7.5 ± 1.19 µM
- IC50 ([11]; SW620, 72 h, read-out: IC50): 5 ± 0.157 µM
- IC50 ([11]; SW620, as printed in abstract, time not stated, read-out: inhibitory concentration (IC50)): 7.5 ± 1.19 µg/mL

Structure (SMILES): COc1cc(/C=C/C(=O)CC(=O)/C=C/c2ccc(O)c(OC)c2)ccc1O [curcumin]
- IC50 [5, 12]: > 30 µM
- IC50 [5, 13]: > 30 µM
- IC50 [5, 14]: > 30 µM
- IC50 ([10]; HT29, 24 h, read-out: IC50): > 30 µM
- IC50 ([10]; HT29, 48 h, read-out: IC50): 26.7 ± 1.53 µM
- IC50 ([10]; HT29, 72 h, read-out: IC50): 20.7 ± 1.16 µM
- IC50 ([11]; SW620, 24 h, read-out: IC50): > 30 µM
- IC50 ([11]; SW620, 48 h, read-out: IC50): 18.6 ± 0.321 µM
- IC50 ([11]; SW620, 72 h, read-out: IC50): 15.7 ± 1.52 µM
